Experimental data: the NIST ThermoML archive (doi:10.1021/je900306v)
± gives the expanded uncertainty stated by the source.

Details: Liquid, Closed cell (Static) method

C=C(F)C(F)(F)F [2,3,3,3-tetrafluoro-1-propene]
Details	vapor or sublimation pressure [kPa]
224.12 K	38.9 ± 2
228.21 K	48.3 ± 2
233.12 K	62 ± 2
234.21 K	65.5 ± 2
238.08 K	78.7 ± 2
243.03 K	98.8 ± 2
247.95 K	121.7 ± 2
252.91 K	149.2 ± 2
255.49 K	165.3 ± 2
257.7 K	180.4 ± 2
258.61 K	186.9 ± 2
263.14 K	221.7 ± 2.1
268.1 K	265.1 ± 2.1
272.98 K	313.9 ± 2.1
277.96 K	370.5 ± 2.1
283.09 K	437.1 ± 2.2
288.08 K	509.4 ± 2.2
292.87 K	587.3 ± 2.3
297.97 K	679.4 ± 2.4
303.12 K	783.2 ± 2.4
308.11 K	894.6 ± 2.6
313.09 K	1018 ± 2.7
315.59 K	1083.5 ± 2.7
318.08 K	1153 ± 2.8
320.61 K	1224 ± 2.9
323.11 K	1301.1 ± 3
325.58 K	1380 ± 3.1
333.06 K	1638.3 ± 3.4
338.05 K	1831 ± 3.7
343.02 K	2039 ± 3.9
348.01 K	2265.6 ± 4.2
352.98 K	2511.5 ± 4.6
357.97 K	2778.2 ± 4.9
362.94 K	3067.1 ± 5.3
365.93 K	3218.4 ± 5.4

FCC(F)(F)F [1,1,1,2-tetrafluoroethane]
Details	vapor or sublimation pressure [kPa]
243.1 K	84.23 ± 2.2
248.08 K	106.12 ± 2.3
263.01 K	199.39 ± 2.9
283.03 K	412.95 ± 4.7
303.12 K	769.5 ± 8.1
328.05 K	1488 ± 15
352.93 K	2620.8 ± 27
